Assay results reported in ChEMBL document CHEMBL3509421, “FDA drug approval package for diclofenac acid (NDA 22-202 CP, Ref ID: 3374276)”.

Experiments:
[1] = (§1) Geometric mean for Cmax of diclofenac following single oral dosing of 35 mg Zorvolex capsule in healthy human; format: ADME, organism-based; parameters: dietary status Fasting, dose 35 mg, dosed compound id 2.46815e+06, dosed compound name Diclofenac, gender Mixed, regimen Single, route oral; details: both, plasma
[2] = (§2) Median tmax of diclofenac following single oral dosing of 35 mg Zorvolex capsule in healthy human; format: ADME, organism-based; parameters: dietary status Fasting, dose 35 mg, dosed compound id 2.46815e+06, dosed compound name Diclofenac, gender Mixed, regimen Single, route oral; details: both, plasma, read-out: Median Tmax
[3] = (§3) Minimum tmax of diclofenac following single oral dosing of 35 mg Zorvolex capsule in healthy human; format: ADME, organism-based, Plasma; parameters: dietary status Fasting, dose 35 mg, dosed compound id 2.46815e+06, dosed compound name Diclofenac, gender Mixed, regimen Single, route oral; details: in vivo
[4] = (§4) Maximum tmax of diclofenac following single oral dosing of 35 mg Zorvolex capsule in healthy human; format: ADME, organism-based, Plasma; parameters: dietary status Fasting, dose 35 mg, dosed compound id 2.46815e+06, dosed compound name Diclofenac, gender Mixed, regimen Single, route oral; details: in vivo
[5] = (§5) Mean apparent terminal elimination rate constant value of diclofenac following single oral dosing of 35 mg Zorvolex capsule in healthy human; format: ADME, organism-based, Plasma; parameters: dietary status Fasting, dose 35 mg, dosed compound id 2.46815e+06, dosed compound name Diclofenac, gender Mixed, regimen Single, route oral; details: in vivo
[6] = (§6) Geometric mean for apparent terminal elimination rate constant of diclofenac following single oral dosing of 35 mg Zorvolex capsule in healthy human; format: ADME, organism-based, Plasma; parameters: dietary status Fasting, dose 35 mg, dosed compound id 2.46815e+06, dosed compound name Diclofenac, gender Mixed, regimen Single, route oral; details: in vivo
[7] = (§7) Mean AUC (0-t) value of diclofenac following single oral dosing of 35 mg Zorvolex capsule in healthy human; format: ADME, organism-based; parameters: dietary status Fasting, dose 35 mg, dosed compound id 2.46815e+06, dosed compound name Diclofenac, gender Mixed, regimen Single, route oral; details: both, plasma
[8] = (§8) Geometric mean for AUC (0-t) of diclofenac following single oral dosing of 35 mg Zorvolex capsule in healthy human; format: ADME, organism-based; parameters: dietary status Fasting, dose 35 mg, dosed compound id 2.46815e+06, dosed compound name Diclofenac, gender Mixed, regimen Single, route oral; details: both, plasma
[9] = (§9) Mean AUC (0-infinity) value of diclofenac following single oral dosing of 35 mg Zorvolex capsule in healthy human; format: ADME, organism-based; parameters: time infinity, dietary status Fasting, dose 35 mg, dosed compound id 2.46815e+06, dosed compound name Diclofenac, gender Mixed, regimen Single, route oral; details: both, plasma, read-out: AUC (0-infinity)
[10] = (§10) Geometric mean for AUC (0-infinity) of diclofenac following single oral dosing of 35 mg Zorvolex capsule in healthy human; format: ADME, organism-based; parameters: time infinity, dietary status Fasting, dose 35 mg, dosed compound id 2.46815e+06, dosed compound name Diclofenac, gender Mixed, regimen Single, route oral; details: both, plasma, read-out: AUC (0-infinity)
[11] = Mean Cmax value of diclofenac following single oral dosing of 35 mg Zorvolex capsule in healthy human; format: ADME, organism-based; parameters: dietary status Fed, dose 35 mg, dosed compound id 2.46815e+06, dosed compound name Diclofenac, gender Mixed, regimen Single, route oral; details: both, plasma
[12] = as §1; format: ADME, organism-based; parameters: dietary status Fed, dose 35 mg, dosed compound id 2.46815e+06, dosed compound name Diclofenac, gender Mixed, regimen Single, route oral; details: both, plasma
[13] = as §2; format: ADME, organism-based; parameters: dietary status Fed, dose 35 mg, dosed compound id 2.46815e+06, dosed compound name Diclofenac, gender Mixed, regimen Single, route oral; details: both, plasma, read-out: Median Tmax
[14] = as §3; format: ADME, organism-based, Plasma; parameters: dietary status Fed, dose 35 mg, dosed compound id 2.46815e+06, dosed compound name Diclofenac, gender Mixed, regimen Single, route oral; details: in vivo
[15] = as §4; format: ADME, organism-based, Plasma; parameters: dietary status Fed, dose 35 mg, dosed compound id 2.46815e+06, dosed compound name Diclofenac, gender Mixed, regimen Single, route oral; details: in vivo
[16] = as §5; format: ADME, organism-based, Plasma; parameters: dietary status Fed, dose 35 mg, dosed compound id 2.46815e+06, dosed compound name Diclofenac, gender Mixed, regimen Single, route oral; details: in vivo
[17] = as §6; format: ADME, organism-based, Plasma; parameters: dietary status Fed, dose 35 mg, dosed compound id 2.46815e+06, dosed compound name Diclofenac, gender Mixed, regimen Single, route oral; details: in vivo
[18] = as §7; format: ADME, organism-based; parameters: dietary status Fed, dose 35 mg, dosed compound id 2.46815e+06, dosed compound name Diclofenac, gender Mixed, regimen Single, route oral; details: both, plasma
[19] = as §8; format: ADME, organism-based; parameters: dietary status Fed, dose 35 mg, dosed compound id 2.46815e+06, dosed compound name Diclofenac, gender Mixed, regimen Single, route oral; details: both, plasma
[20] = as §9; format: ADME, organism-based; parameters: time infinity, dietary status Fed, dose 35 mg, dosed compound id 2.46815e+06, dosed compound name Diclofenac, gender Mixed, regimen Single, route oral; details: both, plasma, read-out: AUC (0-infinity)
[21] = as §10; format: ADME, organism-based; parameters: time infinity, dietary status Fed, dose 35 mg, dosed compound id 2.46815e+06, dosed compound name Diclofenac, gender Mixed, regimen Single, route oral; details: both, plasma, read-out: AUC (0-infinity)
[22] = Mean Cmax value of diclofenac following single oral dosing of 50 mg Cataflam tablet in healthy human; format: ADME, organism-based; parameters: dietary status Fasting, dose 50 mg, dosed compound id 2.46815e+06, dosed compound name Diclofenac potassium, gender Mixed, regimen Single, route oral; details: both, plasma
[23] = Geometric mean for Cmax of diclofenac following single oral dosing of 50 mg Cataflam tablet in healthy human; format: ADME, organism-based; parameters: dietary status Fasting, dose 50 mg, dosed compound id 2.46815e+06, dosed compound name Diclofenac potassium, gender Mixed, regimen Single, route oral; details: both, plasma
[24] = Median tmax of diclofenac following single oral dosing of 50 mg Cataflam tablet in healthy human; format: ADME, organism-based; parameters: dietary status Fasting, dose 50 mg, dosed compound id 2.46815e+06, dosed compound name Diclofenac potassium, gender Mixed, regimen Single, route oral; details: both, plasma, read-out: Median Tmax
[25] = Minimum tmax of diclofenac following single oral dosing of 50 mg Cataflam tablet in healthy human; format: ADME, organism-based, Plasma; parameters: dietary status Fasting, dose 50 mg, dosed compound id 2.46815e+06, dosed compound name Diclofenac potassium, gender Mixed, regimen Single, route oral; details: in vivo
[26] = Maximum tmax of diclofenac following single oral dosing of 50 mg Cataflam tablet in healthy human; format: ADME, organism-based, Plasma; parameters: dietary status Fasting, dose 50 mg, dosed compound id 2.46815e+06, dosed compound name Diclofenac potassium, gender Mixed, regimen Single, route oral; details: in vivo
[27] = Mean apparent terminal elimination rate constant value of diclofenac following single oral dosing of 50 mg Cataflam tablet in healthy human; format: ADME, organism-based, Plasma; parameters: dietary status Fasting, dose 50 mg, dosed compound id 2.46815e+06, dosed compound name Diclofenac potassium, gender Mixed, regimen Single, route oral; details: in vivo
[28] = Geometric mean for apparent terminal elimination rate constant of diclofenac following single oral dosing of 50 mg Cataflam tablet in healthy human; format: ADME, organism-based, Plasma; parameters: dietary status Fasting, dose 50 mg, dosed compound id 2.46815e+06, dosed compound name Diclofenac potassium, gender Mixed, regimen Single, route oral; details: in vivo
[29] = Mean AUC (0-t) value of diclofenac following single oral dosing of 50 mg Cataflam tablet in healthy human; format: ADME, organism-based; parameters: dietary status Fasting, dose 50 mg, dosed compound id 2.46815e+06, dosed compound name Diclofenac potassium, gender Mixed, regimen Single, route oral; details: both, plasma
[30] = Mean AUC (0-infinity) value of diclofenac following single oral dosing of 50 mg Cataflam tablet in healthy human; format: ADME, organism-based; parameters: time infinity, dietary status Fasting, dose 50 mg, dosed compound id 2.46815e+06, dosed compound name Diclofenac potassium, gender Mixed, regimen Single, route oral; details: both, plasma, read-out: AUC (0-infinity)
[31] = Geometric mean for AUC (0-infinity) of diclofenac following single oral dosing of 50 mg Cataflam tablet in healthy human; format: ADME, organism-based, Plasma; parameters: time infinity, dietary status Fasting, dose 50 mg, dosed compound id 2.46815e+06, dosed compound name Diclofenac potassium, gender Mixed, regimen Single, route oral; details: in vivo

With `O=C(O)Cc1ccccc1Nc1c(Cl)cccc1Cl` [DICLOFENAC] the Cmax [1] was 804 ng/mL, the Tmax [2] was 1 h and the “Minimum Tmax” value [3] was 0.47 h. For the same compound, the “Maximum Tmax” value [4] was 4 h, the lambda-z [5] was 0.349 h⁻¹ and the lambda-z [6] was 0.34 h⁻¹. It also gave an AUC(0-t) [7] of 1000 ng·h/mL, an AUC(0-t) [8] of 980 ng·h/mL and an AUC(0-inf) [9] of 1000 ng·h/mL. For the same compound, the AUC(0-inf) [10] was 979 ng·h/mL, the Cmax [11] was 355 ng/mL and the Cmax [12] was 321 ng/mL. The Tmax [13] was 3.32 h, the “Minimum Tmax” value [14] was 0.5 h and the “Maximum Tmax” value [15] was 10 h. For the same compound, the lambda-z [16] was 0.371 h⁻¹, the lambda-z [17] was 0.333 h⁻¹ and the AUC(0-t) [18] was 861 ng·h/mL. For the same compound, the AUC(0-t) [19] was 837 ng·h/mL, the AUC(0-inf) [20] was 876 ng·h/mL and the AUC(0-inf) [21] was 852 ng·h/mL. The Cmax [22] was 1190 ng/mL, the Cmax [23] was 1090 ng/mL and the Tmax [24] was 1 h. For the same compound, the “Minimum Tmax” value [25] was 0.25 h, the “Maximum Tmax” value [26] was 4.48 h and the lambda-z [27] was 0.333 h⁻¹. For the same compound, the lambda-z [28] was 0.318 h⁻¹, the AUC(0-t) [29] was 1320 ng·h/mL and the AUC(0-inf) [30] was 1330 ng·h/mL. The “AUC (0-infinity)” value [31] was 1301.961 ng·h/mL.
